Like-named read-outs stand apart in the source and are kept apart here. One block for each compound: values may come before it.
What was measured:
Caco-2 monolayers [1] = test: Validation of 3-day Caco-2 transwell system: FITC-insulin and sulforhodamine-B transport (fluorescence); conditions: for Apparent Permeability (Papp) / % Transport in 5 hours / Cumulative amount transported to basolateral chamber: room temperature, fluorescence, mean±SD n = 3; for Apparent Permeability (Papp): gentle shaking; for Cumulative amount transported to basolateral chamber: after 5 h
Procedure: (§2) Human colorectal adenocarcinoma Caco-2 cell line (HTB-37) obtained from American Type culture Collection (ATCC) (Manassas, VA, USA) was used for all experiments. Cell lines were maintained as per the provider's protocol. Cell culture was performed in Hyclone® DMEM high glucose medium (Thermo Fisher Scientific, Pittsburgh, PA, USA) supplemented with 50 IU/ml of penicillin, 50 mg/L of streptomycin, and 100 ml/L of fetal bovine serum at 37°C in a humidity-controlled 5% CO2 cell culture incubator. Cells were split at a ratio of 1∶3 after reaching 90% confluence. All transwell experiments were performed with cells between 5th–14th passages due to possible phenotypic differences between cells from high and low passage intervals. Cells were cultivated for at least 2 passages before seeding onto transwell filter supports to stabilize the cell phenotype 12].
(§3) Transwell experiments were performed with slight modifications to the protocols provided by the manufacturer (BD Biosciences, Bedford, MA, USA). For the development of the transwell assay system for permeability experiments, Caco-2 cells were seeded onto fibrillar collagen coated polyethylene terephthalate (PET) filter supports (1 µm pore size) of BD Biocoat™ HTS Caco-2 assay system (BD Biosciences, Bedford, MA, USA) according to manufacturer's protocol with slight modifications. Briefly, Caco-2 cells were seeded onto the filter supports at a concentration of 200,000 cells/insert (6.6×10^5 cells/cm^2) using basal seeding medium (with MITO+ serum extender) provided in the HTS system, and were incubated in cell culture incubator (37°C, 5% CO2). Cells were fed from both sides using the Multiwell feeder tray. After 24 hrs, the feeding medium was replaced with MITO+ serum extender supplemented Entero-STIM medium, and growing monolayers were incubated as described earlier. Upon incubation for 48–72 hrs, Caco-2 cells developed a tight junction monolayer, integrity of which was determined by TEER measurements.
(§4) The integrity of Caco-2 monolayer was determined by measuring the transepithelial electrical resistance (TEER) of the cell monolayer grown on filter supports using Millicell-ERS electrical resistance measuring system (Millipore, Bedford, MA) using chopstick electrodes. Briefly, the Caco-2 inserts were transferred to a 24-well culture plate with 1400 µl medium in the feeding well, and 500 µl in culture inserts. The electrodes were immersed in a way that shorter electrode was in the insert and longer electrode in the outer well. […] Based on the literature, a resistance reading of 150–200 Ω.cm^2 was considered as indicative of a confluent Caco-2 monolayer with tight junctions.
(§5) Briefly, cells were pre-conditioned with basal seeding medium for 30 minutes before starting the experiment at 37°C. […] The basolateral chamber consisted 1400 µl of the same growth medium as per manufacturer's protocol. The plates were incubated for 5 hrs at room temperature with gentle shaking (5 rocks/minute on a rocker, so as to mimic intestinal peristaltic movement). TEER measurements were performed at predetermined time intervals (0. 0.25, 0.5, 1, 2, 3, and 5 hrs). At the same time-points, 100 µl samples were withdrawn from the basolateral chamber to quantify the total amount of FITC-ins/sulforhodamine-B transported across the monolayer. The withdrawn sample was immediately replaced with equivalent amount of the experimental medium.
(§6) The apparent permeability coefficients (Papp) of all polypeptides were calculated using the following equation 19]: [drawing 1]
(§7) Where dQ/dt is the amount of solutes transported across the Caco-2 barrier in time dt, C0 is the solute concentration in apical compartment at time zero, and A is the cross-sectional area of the epithelium in contact with apical solution. Total percent drug transport was calculated by dividing the cumulative amount of molecules transported with the original loading concentrations.

Caco-2 monolayers [2] = tested on: Caco-2 monolayers
Procedure: as §2, §3, §4, §5, §6, §7

rat jejunum = tested on: rat jejunum; design: method as in 2 sources, ref 33 = [33]; PMID 21501675; doi:10.1016/j.ijpharm.2011.04.003; 33 Woitiski CB , Sarmento B , Carvalho RA , Neufeld RJ , Veiga F ( 2011 ) Facilitated nanoscale delivery of insulin across intestinal membrane models . Int J Pharm 412 : 123 – 131 . 21501675 10.1016/j ||| ref 36 = [36]; PMID 10227707; doi:10.1023/a:1018819012405; 36 Sinko PJ , Lee YH , Makhey V , Leesman GD , Sutyak JP , et al ( 1999 ) Biopharmaceutical approaches for developing and assessing oral peptide delivery strategies and systems: in vitro permeability; conditions: cited from earlier work
[3] = Polypeptide transport across 3-day Caco-2 monolayers (ELISA); assay type: in vitro ADME, Human; conditions: human, 3-day Caco-2, apical-to-basolateral, room temperature, gentle shaking, mean±SD n = 3, read-out: Apparent Permeability (Papp)
Procedure: (§1) Transport of three different macromolecular pharmaceutical peptides was studied across the Caco-2 monolayers at different loading concentrations. […] Different doses were selected for different polypeptides based upon the values reported in literature to not only approach therapeutic efficacy but also to provide a valid comparison with the results obtained in 21-day monolayer system. Polypeptides were incubated with Caco-2 monolayers for 5 hrs at room temperature with gentle shaking. TEER measurements were performed and samples were collected from basolateral chambers of the Caco-2 plates to determine total drug transport and apparent permeability at different concentrations.

Caco-2 monolayers [4] = test: as above; assay type: in vitro ADME, Human; conditions: 3-day Caco-2, apical-to-basolateral, room temperature, mean±SD n = 3; for Total amount transported to the basolateral side: 5 h
Procedure: as §1

[5] = apical loading 0.005 mg (5 µg/well)
[6] = apical loading 0.024 mg (24 µg/well)

Apparent Permeability (Papp) (Caco-2 monolayers [1]; 3-day Caco-2 (BD Biocoat HTS, serum-free), apical-to-basolateral, apical loading 0.05 mg/well in 500 µl basal seeding medium, 30 min pre-conditioning, 5 h): 5.0±2.9 10^−6 cm/s | % Transport in 5 hours (Caco-2 monolayers [1]; 3-day Caco-2, apical-to-basolateral, apical loading 0.05 mg/well, 5 h): 2.8±1.6% | Cumulative amount transported to basolateral chamber (Caco-2 monolayers [1]; 3-day Caco-2, apical-to-basolateral, apical loading 0.05 mg/well): 0.002 ± 0.0008 mg | Apparent Permeability (Papp) (Caco-2 monolayers [1]; 3-day Caco-2, apical-to-basolateral, apical loading 0.3 mg/well in 500 µl, 5 h): 5.3±0.8 10^−6 cm/s | % Transport in 5 hours (Caco-2 monolayers [1]; 3-day Caco-2, apical-to-basolateral, apical loading 0.3 mg/well, 5 h): 2.9±0.4% | Cumulative amount transported to basolateral chamber (Caco-2 monolayers [1]; 3-day Caco-2, apical-to-basolateral, apical loading 0.3 mg/well): 0.009 ± 0.001 mg | Apparent Permeability (Papp) (Caco-2 monolayers [1]; 3-day Caco-2, apical-to-basolateral, apical loading 0.6 mg/well in 500 µl, 5 h): 4.0±0.6 10^−6 cm/s | % Transport in 5 hours (Caco-2 monolayers [1]; 3-day Caco-2, apical-to-basolateral, apical loading 0.6 mg/well, 5 h): 2.3±0.4% | Cumulative amount transported to basolateral chamber (Caco-2 monolayers [1]; 3-day Caco-2, apical-to-basolateral, apical loading 0.6 mg/well): 0.01 ± 0.002 mg | Apparent Permeability (Papp) (Caco-2 monolayers [1]; 3-day Caco-2, apical-to-basolateral, apical loading […] in 500 µl, 5 h): 4.9±0.9 10^−6 cm/s | Effect on Caco-2 monolayer integrity during transport (Caco-2 monolayers [1]; 3-day Caco-2, different loading concentrations, 5 h, TEER): without damaging the monolayer
Compound: CCN(CC)c1ccc2c(-c3ccc(S(=O)(=O)O)cc3S(=O)(=O)[O-])c3ccc(=[N+](CC)CC)cc-3oc2c1 [Sulforhodamine-B, sulforhodamine B]

Compound: FITC-Insulin: fluorescein isothiocynate conjugated bovine insulin (Sigma Aldrich)
Apparent permeability coefficients (Papp), range over the loadings studied (Caco-2 monolayers [2]): 8.2±1.8-10.5±1.8 | Effect on Caco-2 monolayer integrity during transport (Caco-2 monolayers [2]): without damaging the monolayer

Papp A→B at 5 h, 5 µg/well [3, 5]: 2 ± 0.07 ×10⁻⁶ cm/s | Papp A→B at 5 h, 24 µg/well [3, 6]: 1.5 ± 0.7 ×10⁻⁶ cm/s | Total amount transported to the basolateral side (Caco-2 monolayers [4]; apical loading 5 µg/well): 55 ± 2 ng | % Transport in 5 hours (Caco-2 monolayers [4]; [5]): 1.1±0.04% | % Transport in 5 hours (Caco-2 monolayers [4]; [6]): 0.8±0.4% | Total amount transported to the basolateral side (Caco-2 monolayers [4]; apical loading 24 µg/well): 192 ± 95 ng
Compound: CC(C)C[C@H](NC(=O)[C@H](CCCCN)NC(=O)CNC(=O)[C@H](CC(C)C)NC(=O)[C@@H](NC(=O)[C@@H]1CSSC[C@H](N)C(=O)N[C@@H](CO)C(=O)N[C@@H](CC(N)=O)C(=O)N[C@@H](CC(C)C)C(=O)N[C@@H](CO)C(=O)N[C@@H]([C@@H](C)O)C(=O)N1)C(C)C)C(=O)N[C@@H](CO)C(=O)N[C@@H](CCC(N)=O)C(=O)N[C@@H](CCC(=O)O)C(=O)N[C@@H](CC(C)C)C(=O)N[C@@H](Cc1c[nH]cn1)C(=O)N[C@@H](CCCCN)C(=O)N[C@@H](CC(C)C)C(=O)N[C@@H](CCC(N)=O)C(=O)N[C@H](C(=O)N[C@@H](Cc1ccc(O)cc1)C(=O)N1CCC[C@H]1C(=O)N[C@@H](CCCNC(=N)N)C(=O)N[C@H](C(=O)N[C@@H](CC(N)=O)C(=O)N[C@H](C(=O)NCC(=O)N[C@@H](CO)C(=O)NCC(=O)N[C@H](C(=O)N1CCC[C@H]1C(N)=O)[C@@H](C)O)[C@@H](C)O)[C@@H](C)O)[C@@H](C)O [Salmon Calcitonin]
Permeability through rat jejunum (rat jejunum): 1.9±0.5 ×10^−6 cm/sec
